Data as given in patent US4200575A, “7[(2-Thiazolyl)-2-(oxoimino)acetamido]cephalosporin derivatives” (Takeda Chemical Industries, Ltd., priority 1977, dated 1980).

Columns and labels:
S. aureus 1840 = test: Minimal inhibitory concentration (M.I.C.), agar dilution method; type: cell-based, Staphylococcus aureus; settings: TSA, inoculum 10^7 /ml
Description: (§1) (a) Determination of minimal inhibitory concentrations (Tables 1 to 8):
(§2) Procedure: agar dilution method

S. aureus 209P = test: as above; type: cell-based, Staphylococcus aureus; settings: TSA, inoculum 10^7 /ml
Description: as §1, §2

E. coli NIHJ JC-2 = test: as above; type: cell-based, Escherichia coli; settings: TSA, inoculum 10^7 /ml
Description: as §1, §2

E. coli T-7 = test: as above; type: cell-based, Escherichia coli; settings: TSA, inoculum 10^7 /ml
Description: as §1, §2

E. coli 0-111 = test: as above; type: cell-based, Escherichia coli; settings: TSA, inoculum 10^7 /ml
How it was run: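 MIC against E. coli O-111 was determined by agar dilution.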

K. pneumoniae DT = test: as above; type: cell-based, Klebsiella pneumoniae; settings: TSA, inoculum 10^7 /ml
Description: as §1, §2

K. pneumoniae GN 3835 = test: as above; type: cell-based, Klebsiella pneumoniae; settings: TSA, inoculum 10^7 /ml
Description: as §1, §2

S. marcescens IFO 12648 = test: as above; type: cell-based, Serratia marcescens; settings: TSA, inoculum 10^7 /ml
Description: as §1, §2

S. marcescens TN 24 = test: as above; type: cell-based, Serratia marcescens; settings: TSA, inoculum 10^7 /ml
Description: as §1, §2

P. vulgaris GN 4413 = test: as above; type: cell-based, Proteus vulgaris; settings: TSA, inoculum 10^7 /ml
Description: as §1, §2

P. vulgaris IFO 3988 = test: as above; type: cell-based, Proteus vulgaris; settings: TSA, inoculum 10^7 /ml
Description: as §1, §2

P. mirabilis GN 4359 = test: as above; type: cell-based, Proteus mirabilis; settings: TSA, inoculum 10^7 /ml
Description: as §1, §2

P. morganii IFO 3168 = test: as above; type: cell-based, Proteus morganii; settings: TSA, inoculum 10^7 /ml
Description: as §1, §2

P. rettgeri GN4733 = test: as above; type: cell-based, Proteus rettgeri; settings: TSA, inoculum 10^7 /ml
Description: as §1, §2

P. rettgeri TN 338 = test: as above; type: cell-based, Proteus rettgeri; settings: TSA, inoculum 10^7 /ml
Description: as §1, §2

E. cloacae TN 1282 = test: as above; type: cell-based, Enterobacter cloacae; settings: TSA, inoculum 10^7 /ml
Description: as §1, §2

C. freundii GN 1706 = test: as above; type: cell-based, Citrobacter freundii; settings: TSA, inoculum 10^7 /ml
Description: as §1, §2

C. freundii GN 99 = test: as above; type: cell-based, Citrobacter freundii; settings: TSA, inoculum 10^7 /ml
Description: as §1, §2

Escherichia coli 0-111 = test: Therapeutic effects in infected mice; type: in vivo, Male mice ICR/SLC; settings: Escherichia coli, 0111, sc, 168 h
Description: The preliminary therapeutic effects of some cephalosporin derivatives of this invention as determined in infected mice were as follows.
Determination of therapeutic effects in infected mice
Test animals: Male mice ICR/SLC
Each compound was administered to a group of 5 animals.
Route of infection: Intraperitoneally infected with Escherichia coli 0-111
Period of observation: 7 days.
Method of administration:
One mg of each test compound was dissolved in 100 ml of sterile physiological saline and a dilution series of the same solution was prepared. These solutions were respectively injected subcutaneously into mice immediately after infection, in a single dose of 0.2 ml each.

SMILES | minimal inhibitory concentration (M.I.C.) (S. aureus 1840) | minimal inhibitory concentration (M.I.C.) (S. aureus 209P) | minimal inhibitory concentration (M.I.C.) (E. coli NIHJ JC-2) | minimal inhibitory concentration (M.I.C.) (E. coli T-7) | minimal inhibitory concentration (M.I.C.) (E. coli 0-111) | minimal inhibitory concentration (M.I.C.) (K. pneumoniae DT) | minimal inhibitory concentration (M.I.C.) (K. pneumoniae GN 3835) | minimal inhibitory concentration (M.I.C.) (S. marcescens IFO 12648) | minimal inhibitory concentration (M.I.C.) (S. marcescens TN 24) | minimal inhibitory concentration (M.I.C.) (P. vulgaris GN 4413) | minimal inhibitory concentration (M.I.C.) (P. vulgaris IFO 3988) | minimal inhibitory concentration (M.I.C.) (P. mirabilis GN 4359) | minimal inhibitory concentration (M.I.C.) (P. morganii IFO 3168) | minimal inhibitory concentration (M.I.C.) (P. rettgeri GN4733) | minimal inhibitory concentration (M.I.C.) (P. rettgeri TN 338) | minimal inhibitory concentration (M.I.C.) (E. cloacae TN 1282) | minimal inhibitory concentration (M.I.C.) (C. freundii GN 1706) | minimal inhibitory concentration (M.I.C.) (C. freundii GN 99) | ED50 (Escherichia coli 0-111) [mg/kg]
CCCCNC(=O)O/N=C(\C(=O)NC1C(=O)N2C(C(=O)O)=C(COC(N)=O)CSC12)c1csc(=N)[nH]1 (stereo not drawn) [Example II - 21, sodium 7-[2-(2-imino-4-thiazolin-4-yl)-2-butylcarbamoyloximinoacetamido]-3-carbamoyloxymethyl-3-cephem-4-carboxylate (syn-isomer)] | 3.13 | 1.56 | 0.39 | 3.13 | 0.05 | 0.1 | 0.39 | 6.25 | 25 | 50 | 0.39 | 0.2 | 1.56 | 0.39 | ≤ 0.012 | 25 | 0.78 | 0.39 | 0.1
CNC(=O)O/N=C(\C(=O)NC1C(=O)N2C(C(=O)O)=C(COC(N)=O)CSC12)c1csc(=N)[nH]1 (stereo not drawn) [Example II - 3, sodium 7-[2-(2-imino-4-thiazolin-4-yl)-2-methylcarbamoyloximinoacetamido]-3-carbamoyloxymethyl-3-cephem-4-carboxylate (syn-isomer)] | 3.13 | 3.13 | 0.1 | 0.39 | 0.024 | 0.024 | 0.1 | 3.13 | 6.25 | 50 | 0.05 | 0.05 | 0.78 | 0.1 | ≤ 0.012 | 6.25 | 0.2 | 0.1 | 0.016
CNC(=O)O/N=C(\C(=O)NC1C(=O)N2C(C(=O)O)=C(CSc3nnnn3C)CSC12)c1csc(=N)[nH]1 (stereo not drawn) [Example II - 4, sodium 7-[2-(2-imino-4-thiazolin-4-yl)-2-methylcarbamoyloximinoacetamido]-3-(1-methyl-1H-tetrazol-5-yl)thiomethyl-3-cephem-4-carboxylate (syn-isomer)] | 1.56 | 1.56 | 0.2 | 1.56 | 0.024 | 0.05 | 0.39 | 1.56 | 0.78 | 12.5 | 0.1 | 0.1 | 0.1 | 0.1 | ≤ 0.012 | 1.56 | 0.39 | 0.1 | 0.025
